Assay results taken from patent US20150307938A1, “METHOD TO IDENTIFY A NOVEL CLASS OF IMMUNOLOGIC ADJUVANTS” (Lancell, L.L.C., priority 2011, published 2015).

Tested on: skin
Test: Affymetrix microarray of skin, DBP-4 hr and analogs vs. untreated; gene selection by log-2 fold change, Wilcoxon, Kendall tau (Tables 8, 9)
Format: in vivo, mouse

## CCN(CC)C(=O)c1cccc(C)c1 [DEET, N,N-diethyl-toluamide]
Gene #1 of Table 8
  Log2 Expression Level: 6.74
Gene #2 of Table 8
  Log2 Expression Level: 6.44
Gene #3 of Table 8
  Log2 Expression Level: 9.66
Gene #4 of Table 8
  Log2 Expression Level: 9.66
Gene #5 of Table 8
  Log2 Expression Level: 8.20
Gene #6 of Table 8
  Log2 Expression Level: 7.42
Gene #7 of Table 8
  Log2 Expression Level: 6.76
Gene #8 of Table 8
  Log2 Expression Level: 7.42
Gene #9 of Table 8
  Log2 Expression Level: 7.42
Gene #10 of Table 8
  Log2 Expression Level: 7.42
Gene #11 of Table 8
  Log2 Expression Level: 6.76
Gene #12 of Table 8
  Log2 Expression Level: 6.76
Gene #13 of Table 8
  Log2 Expression Level: 6.76
Gene #14 of Table 8
  Log2 Expression Level: 5.31
Gene #15 of Table 8
  Log2 Expression Level: 5.31
Gene #16 of Table 8
  Log2 Expression Level: 7.68
Gene #17 of Table 8
  Log2 Expression Level: 9.60
Gene #18 of Table 8
  Log2 Expression Level: 9.60
Gene #19 of Table 8
  Log2 Expression Level: 10.04
Gene #20 of Table 8
  Log2 Expression Level: 11.87
Gene #21 of Table 8
  Log2 Expression Level: 9.61
Gene #22 of Table 8
  Log2 Expression Level: 8.47
Gene #23 of Table 8
  Log2 Expression Level: 7.75
Gene #24 of Table 8
  Log2 Expression Level: 8.21
Gene #25 of Table 8
  Log2 Expression Level: 8.21
Gene #26 of Table 8
  Log2 Expression Level: 8.83
Gene #27 of Table 8
  Log2 Expression Level: 8.83
Gene #28 of Table 8
  Log2 Expression Level: 8.83
Gene #29 of Table 8
  Log2 Expression Level: 7.20
Gene #30 of Table 8
  Log2 Expression Level: 9.06
Gene #31 of Table 8
  Log2 Expression Level: 9.06
Gene #32 of Table 8
  Log2 Expression Level: 9.06
Gene #33 of Table 8
  Log2 Expression Level: 6.10
Gene #34 of Table 8
  Log2 Expression Level: 7.43
Gene #35 of Table 8
  Log2 Expression Level: 7.43
Gene #36 of Table 8
  Log2 Expression Level: 9.66
Gene #37 of Table 8
  Log2 Expression Level: 9.66
Gene #38 of Table 8
  Log2 Expression Level: 9.66
Gene #39 of Table 8
  Log2 Expression Level: 8.11
Gene #40 of Table 8
  Log2 Expression Level: 8.22
Gene #41 of Table 8
  Log2 Expression Level: 8.43
Gene #42 of Table 8
  Log2 Expression Level: 7.97
Gene #43 of Table 8
  Log2 Expression Level: 7.97
Gene #44 of Table 8
  Log2 Expression Level: 8.43
Gene #45 of Table 8
  Log2 Expression Level: 7.97
Gene #46 of Table 8
  Log2 Expression Level: 8.43
Gene #47 of Table 8
  Log2 Expression Level: 9.23
Gene #48 of Table 8
  Log2 Expression Level: 9.23
Gene #49 of Table 8
  Log2 Expression Level: 9.23
Gene #50 of Table 8
  Log2 Expression Level: 10.17
Gene #51 of Table 8
  Log2 Expression Level: 8.15
Gene #52 of Table 8
  Log2 Expression Level: 10.64
Gene #53 of Table 8
  Log2 Expression Level: 9.22
Gene #54 of Table 8
  Log2 Expression Level: 10.01
Gene #55 of Table 8
  Log2 Expression Level: 8.18
Gene #56 of Table 8
  Log2 Expression Level: 10.41
Gene #57 of Table 8
  Log2 Expression Level: 9.06
Gene #58 of Table 8
  Log2 Expression Level: 9.46
Gene #59 of Table 8
  Log2 Expression Level: 8.46
Gene #60 of Table 8
  Log2 Expression Level: 7.24
Gene #61 of Table 8
  Log2 Expression Level: 12.16
Gene #62 of Table 8
  Log2 Expression Level: 8.52
Gene #63 of Table 8
  Log2 Expression Level: 11.76
Gene #64 of Table 8
  Log2 Expression Level: 11.40
Gene #65 of Table 8
  Log2 Expression Level: 8.25
Gene #66 of Table 8
  Log2 Expression Level: 9.07
Gene #67 of Table 8
  Log2 Expression Level: 5.71
Gene #68 of Table 8
  Log2 Expression Level: 10.87
Gene #69 of Table 8
  Log2 Expression Level: 7.06
Gene #70 of Table 8
  Log2 Expression Level: 5.72
Gene #71 of Table 8
  Log2 Expression Level: 7.84
Gene #72 of Table 8
  Log2 Expression Level: 9.65
Gene #73 of Table 8
  Log2 Expression Level: 8.88
Gene #74 of Table 8
  Log2 Expression Level: 7.48
Gene #75 of Table 8
  Log2 Expression Level: 10.04
Gene #76 of Table 8
  Log2 Expression Level: 5.76
Gene #77 of Table 8
  Log2 Expression Level: 9.62
Gene #78 of Table 8
  Log2 Expression Level: 9.85
Gene #79 of Table 8
  Log2 Expression Level: 8.03
Gene #80 of Table 8
  Log2 Expression Level: 13.18
Gene #81 of Table 8
  Log2 Expression Level: 6.94
Gene #82 of Table 8
  Log2 Expression Level: 6.28
Gene #83 of Table 8
  Log2 Expression Level: 8.09
Gene #84 of Table 8
  Log2 Expression Level: 8.70
Gene #85 of Table 8
  Log2 Expression Level: 9.57
Gene #86 of Table 8
  Log2 Expression Level: 8.02
Gene #87 of Table 8
  Log2 Expression Level: 11.32
Gene #88 of Table 8
  Log2 Expression Level: 10.03
Gene #89 of Table 8
  Log2 Expression Level: 6.25
Gene #90 of Table 8
  Log2 Expression Level: 11.13
Gene #91 of Table 8
  Log2 Expression Level: 9.01
Gene #92 of Table 8
  Log2 Expression Level: 7.14
Gene #93 of Table 8
  Log2 Expression Level: 10.13
Gene #94 of Table 8
  Log2 Expression Level: 9.19
Gene #95 of Table 8
  Log2 Expression Level: 7.20
Gene #96 of Table 8
  Log2 Expression Level: 9.02
Gene #97 of Table 8
  Log2 Expression Level: 5.86
Gene #98 of Table 8
  Log2 Expression Level: 6.82
Gene #99 of Table 8
  Log2 Expression Level: 10.05
Gene #100 of Table 8
  Log2 Expression Level: 8.86
